{"source": "patent US20090074815A1", "about": "“Immunomodulator Compounds as Vaccine Enhancers” (SCICLONE PHARMACEUTICALS, INC., priority 2005, published 2009)", "key": {"[1]": {"test_system": "IL-2 production by OvA-stimulated splenocytes", "assay": "OvA-stimulated production of IL-2 by splenocytes of OvA-immunized mice", "procedure": "The OvA was administered subcutaneously to the crest in a volume of 200 μl. Mice were immunized on day 1 with OvA in complete Freund's adjuvant (CFA; Sigma) and on day 15 with the antigen in incomplete Freund's adjuvant (IFA; Sigma). The immune response was analyzed on day 29. Mice were also immunized with 10 μg/mouse of OvA using Alum as an adjuvant.\nThymuses and spleens from mice of each treatment group were pooled, and then minced with scissors. The minced tissues were suspended in sterile PBS to form cell suspensions, filtered through a double gauze layer and centrifuged. Cells were washed twice with PBS, re-suspended in RPMI-1640 (Sigma) with 2.0 mM of L-glutamine, 50 μM of mercaptoethanol, and 10 μg/ml of gentamycin (complete medium); and cell counts were made. (The splenocyte suspension was washed with a 0.86% solution of NH4Cl to pre-lyse erthrocytes.)\nAssessment of Mitogen- and Antigen-Induced Production of Cytokines: Thymic cells (1×10^6/well) in complete medium with 2% FCS were stimulated with ConA (0, 1, and 2 μg/ml). Splenocytes (1×10^6/well) in complete medium with 5% FCS were stimulated with ConA (0, 1, and 5 μg/ml) and with OvA (0-100 μg/ml). […] Supernatants from OvA-stimulated cultures were collected after 72 hours. Supernatants from both cultures were frozen, and kept at 20° C. Concentrations of IL-2, IL-4, IL-10, IL-12R40 and IFNγ in the supernatants were determined by solid-phase EIA with EIA Expansion Kits, available from BD Biosciences (formerly Pharmingen), in accordance with the manufacturer's instructions."}, "[2]": {"assay": "Indices of humoral immunity (CD20+, IgA, IgM, IgG, CH50, circulating immune complexes) before and after vaccination", "conditions": "patients with infectious syndrome, hepatitis B vaccination with SCV-07, after vaccination, n = 16, M ± m", "procedure": "This group, which received SCV-07 and hepatitis B vaccine, included thirty-three (33) essentially healthy students from the Chelyabinsk State Medical Academy.\nThe hepatitis vaccine Engerix-B® produced by SmithKlineBeecham-Biomed (Russia) was administered as a course of 3 doses given at months 0, 1, and 6. Immunological examinations of the subjects were carried out before the first administration of the vaccine and at one month after completion of the course of immunization.\nParticipants were evaluated to determine levels of leukocytes in peripheral blood, leukocytary formula, the presence of marker specific lymphocytes (CD3, CD4, CD8, CD16, CD95 and CD20), lysosomal activity of neutrophils; oxygen-dependent metabolism with spontaneous and induced hematocrit (HCT) tests, phagocytary function of neutrophils according to the latex particle absorption model; immunoglobulin IgA, IgM, IgG concentrations; total hemolytic activity of complement (CH50) in blood serum and for circulating immune complexes. […] A concentration of 10 MU/liter (l) was assumed to be a protective hepatitis B titer.\nThe immunomodulator SCV-07 was administered at the same time as the hepatitis B vaccine to determine if SCV-07 increased the efficacy of vaccination and to determine if it would correct the immunity disorders of subjects with infectious syndrome. A one milligram (1 mg) dose of SCV-07 was administered as an intra muscular injection to the 32 subjects of Group 2 of the study on days one to five, where day one was the day the first dose of the hepatitis B vaccine was administered. One (1) mg of SCV-07 was also administered with the second and third doses of vaccine one month and 6 months following administration of the initial vaccine dose. Study participants in Group I received injections of physiological saline which were administered on the same schedule as the SCV-07 to provide a placebo control group."}, "[3]": {"conditions": "OvA/Alum, 1.0 μg/kg i/p, OvA 1 μg/ml"}, "[4]": {"conditions": "OvA/Alum, 1.0 μg/kg i/p, OvA 10 μg/ml"}, "[5]": {"conditions": "OvA/Alum, 1.0 μg/kg i/p, OvA 25 μg/ml"}, "[6]": {"conditions": "OvA/Alum, 1.0 μg/kg i/p, OvA 100 μg/ml"}, "[7]": {"conditions": "OvA/FA, 0.1 μg/kg i/p, OvA 1 μg/ml"}, "[8]": {"conditions": "OvA/FA, 0.1 μg/kg i/p, OvA 10 μg/ml"}, "[9]": {"conditions": "OvA/FA, 0.1 μg/kg i/p, OvA 25 μg/ml"}, "[10]": {"conditions": "OvA/FA, 0.1 μg/kg i/p, OvA 100 μg/ml"}, "[11]": {"conditions": "OvA/FA, 1.0 μg/kg i/p, OvA 1 μg/ml"}, "[12]": {"conditions": "OvA/FA, 1.0 μg/kg i/p, OvA 10 μg/ml"}, "[13]": {"conditions": "OvA/FA, 1.0 μg/kg i/p, OvA 25 μg/ml"}, "[14]": {"conditions": "OvA/FA, 1.0 μg/kg i/p, OvA 100 μg/ml"}}, "data": [{"molecule": "N[C@H](CCC(=O)N[C@@H](Cc1c[nH]c2ccccc12)C(=O)O)C(=O)O", "note": "[SCV-07, γ-D-glutamyl-L-tryptophan]", "values": [{"measurement": "Production of IL-2 by splenocytes, % (% of control)", "setting": "[1]; OvA/Alum, 0.1 μg/kg i/p, OvA 100 μg/ml", "value": 52.0, "unit": "%"}, {"measurement": "Production of IL-2 by splenocytes", "setting": "[1]; OvA/Alum, 0.1 μg/kg per os, OvA 0 μg/ml", "value": 172.9, "unit": "pg/mL"}, {"measurement": "Production of IL-2 by splenocytes", "setting": "[1]; OvA/Alum, 0.1 μg/kg per os, OvA 1 μg/ml", "value": 163.0, "unit": "pg/mL"}, {"measurement": "Production of IL-2 by splenocytes", "setting": "[1]; OvA/Alum, 0.1 μg/kg per os, OvA 10 μg/ml", "value": 124.5, "unit": "pg/mL"}, {"measurement": "Production of IL-2 by splenocytes", "setting": "[1]; OvA/Alum, 0.1 μg/kg per os, OvA 25 μg/ml", "value": 255.5, "unit": "pg/mL"}, {"measurement": "Production of IL-2 by splenocytes", "setting": "[1]; OvA/Alum, 0.1 μg/kg per os, OvA 100 μg/ml", "value": 90.8, "unit": "pg/mL"}, {"measurement": "Production of IL-2 by splenocytes", "setting": "[1]; OvA/Alum, 1.0 μg/kg i/p, OvA 0 μg/ml", "value": 113.4, "unit": "pg/mL"}, {"measurement": "Production of IL-2 by splenocytes", "setting": "[1]; [3]", "value": 173.7, "unit": "pg/mL"}, {"measurement": "Production of IL-2 by splenocytes, % (% of control)", "setting": "[1]; [3]", "value": 153.2, "unit": "%"}, {"measurement": "Production of IL-2 by splenocytes", "setting": "[1]; [4]", "value": 167.9, "unit": "pg/mL"}, {"measurement": "Production of IL-2 by splenocytes, % (% of control)", "setting": "[1]; [4]", "value": 148.1, "unit": "%"}, {"measurement": "Production of IL-2 by splenocytes", "setting": "[1]; [5]", "value": 353.8, "unit": "pg/mL"}, {"measurement": "Production of IL-2 by splenocytes, % (% of control)", "setting": "[1]; [5]", "value": 312.0, "unit": "%"}, {"measurement": "Production of IL-2 by splenocytes", "setting": "[1]; [6]", "value": 205.8, "unit": "pg/mL"}, {"measurement": "Production of IL-2 by splenocytes, % (% of control)", "setting": "[1]; [6]", "value": 181.5, "unit": "%"}, {"measurement": "Production of IL-2 by splenocytes", "setting": "[1]; OvA/Alum, 1.0 μg/kg per os, OvA 0 μg/ml", "value": 160.9, "unit": "pg/mL"}, {"measurement": "Production of IL-2 by splenocytes", "setting": "[1]; OvA/Alum, 1.0 μg/kg per os, OvA 1 μg/ml", "value": 92.8, "unit": "pg/mL"}, {"measurement": "Production of IL-2 by splenocytes", "setting": "[1]; OvA/Alum, 1.0 μg/kg per os, OvA 10 μg/ml", "value": 181.9, "unit": "pg/mL"}, {"measurement": "Production of IL-2 by splenocytes", "setting": "[1]; OvA/Alum, 1.0 μg/kg per os, OvA 25 μg/ml", "value": 121.3, "unit": "pg/mL"}, {"measurement": "Production of IL-2 by splenocytes", "setting": "[1]; OvA/Alum, 1.0 μg/kg per os, OvA 100 μg/ml", "value": 120.2, "unit": "pg/mL"}, {"measurement": "Production of IL-2 by splenocytes", "setting": "[1]; OvA/Alum, 10.0 μg/kg per os, OvA 0 μg/ml", "value": 289.4, "unit": "pg/mL"}, {"measurement": "Production of IL-2 by splenocytes", "setting": "[1]; OvA/Alum, 10.0 μg/kg per os, OvA 1 μg/ml", "value": 551.9, "unit": "pg/mL"}, {"measurement": "Production of IL-2 by splenocytes", "setting": "[1]; OvA/Alum, 10.0 μg/kg per os, OvA 10 μg/ml", "value": 252.5, "unit": "pg/mL"}, {"measurement": "Production of IL-2 by splenocytes", "setting": "[1]; OvA/Alum, 10.0 μg/kg per os, OvA 25 μg/ml", "value": 218.7, "unit": "pg/mL"}, {"measurement": "Production of IL-2 by splenocytes", "setting": "[1]; OvA/Alum, 10.0 μg/kg per os, OvA 100 μg/ml", "value": 300.8, "unit": "pg/mL"}, {"measurement": "Production of IL-2 by splenocytes", "setting": "[1]; OvA/FA, 0.1 μg/kg i/p, OvA 0 μg/ml", "value": 78.4, "unit": "pg/mL"}, {"measurement": "Production of IL-2 by splenocytes", "setting": "[1]; [7]", "value": 10.2, "unit": "pg/mL"}, {"measurement": "Production of IL-2 by splenocytes, % (% of control)", "setting": "[1]; [7]", "value": 13.0, "unit": "%"}, {"measurement": "Production of IL-2 by splenocytes", "setting": "[1]; [8]", "value": 72.7, "unit": "pg/mL"}, {"measurement": "Production of IL-2 by splenocytes, % (% of control)", "setting": "[1]; [8]", "value": 92.7, "unit": "%"}, {"measurement": "Production of IL-2 by splenocytes", "setting": "[1]; [9]", "value": 85.8, "unit": "pg/mL"}, {"measurement": "Production of IL-2 by splenocytes, % (% of control)", "setting": "[1]; [9]", "value": 109.4, "unit": "%"}, {"measurement": "Production of IL-2 by splenocytes", "setting": "[1]; [10]", "value": 95.5, "unit": "pg/mL"}, {"measurement": "Production of IL-2 by splenocytes, % (% of control)", "setting": "[1]; [10]", "value": 121.8, "unit": "%"}, {"measurement": "Production of IL-2 by splenocytes", "setting": "[1]; OvA/FA, 0.1 μg/kg per os, OvA 0 μg/ml", "value": 211.8, "unit": "pg/mL"}, {"measurement": "Production of IL-2 by splenocytes", "setting": "[1]; OvA/FA, 0.1 μg/kg per os, OvA 1 μg/ml", "value": 68.7, "unit": "pg/mL"}, {"measurement": "Production of IL-2 by splenocytes", "setting": "[1]; OvA/FA, 0.1 μg/kg per os, OvA 10 μg/ml", "value": 92.9, "unit": "pg/mL"}, {"measurement": "Production of IL-2 by splenocytes", "setting": "[1]; OvA/FA, 0.1 μg/kg per os, OvA 25 μg/ml", "value": 252.5, "unit": "pg/mL"}, {"measurement": "Production of IL-2 by splenocytes", "setting": "[1]; OvA/FA, 0.1 μg/kg per os, OvA 100 μg/ml", "value": 94.8, "unit": "pg/mL"}, {"measurement": "Production of IL-2 by splenocytes", "setting": "[1]; OvA/FA, 1.0 μg/kg i/p, OvA 0 μg/ml", "value": 147.7, "unit": "pg/mL"}, {"measurement": "Production of IL-2 by splenocytes", "setting": "[1]; [11]", "value": 116.5, "unit": "pg/mL"}, {"measurement": "Production of IL-2 by splenocytes, % (% of control)", "setting": "[1]; [11]", "value": 78.9, "unit": "%"}, {"measurement": "Production of IL-2 by splenocytes", "setting": "[1]; [12]", "value": 317.3, "unit": "pg/mL"}, {"measurement": "Production of IL-2 by splenocytes, % (% of control)", "setting": "[1]; [12]", "value": 214.8, "unit": "%"}, {"measurement": "Production of IL-2 by splenocytes", "setting": "[1]; [13]", "value": 363.1, "unit": "pg/mL"}, {"measurement": "Production of IL-2 by splenocytes, % (% of control)", "setting": "[1]; [13]", "value": 245.8, "unit": "%"}, {"measurement": "Production of IL-2 by splenocytes", "setting": "[1]; [14]", "value": 564.4, "unit": "pg/mL"}, {"measurement": "Production of IL-2 by splenocytes, % (% of control)", "setting": "[1]; [14]", "value": 382.1, "unit": "%"}, {"measurement": "Production of IL-2 by splenocytes", "setting": "[1]; OvA/FA, 1.0 μg/kg per os, OvA 0 μg/ml", "value": 122.4, "unit": "pg/mL"}, {"measurement": "Production of IL-2 by splenocytes", "setting": "[1]; OvA/FA, 1.0 μg/kg per os, OvA 1 μg/ml", "value": 82.7, "unit": "pg/mL"}, {"measurement": "Production of IL-2 by splenocytes", "setting": "[1]; OvA/FA, 1.0 μg/kg per os, OvA 10 μg/ml", "value": 304.2, "unit": "pg/mL"}, {"measurement": "Production of IL-2 by splenocytes", "setting": "[1]; OvA/FA, 1.0 μg/kg per os, OvA 25 μg/ml", "value": 152.9, "unit": "pg/mL"}, {"measurement": "Production of IL-2 by splenocytes", "setting": "[1]; OvA/FA, 1.0 μg/kg per os, OvA 100 μg/ml", "value": 282.8, "unit": "pg/mL"}, {"measurement": "Production of IL-2 by splenocytes", "setting": "[1]; OvA/FA, 10.0 μg/kg per os, OvA 0 μg/ml", "value": 163, "unit": "pg/mL"}, {"measurement": "Production of IL-2 by splenocytes", "setting": "[1]; OvA/FA, 10.0 μg/kg per os, OvA 1 μg/ml", "value": 80.2, "unit": "pg/mL"}, {"measurement": "Production of IL-2 by splenocytes", "setting": "[1]; OvA/FA, 10.0 μg/kg per os, OvA 10 μg/ml", "value": 305.4, "unit": "pg/mL"}, {"measurement": "Production of IL-2 by splenocytes", "setting": "[1]; OvA/FA, 10.0 μg/kg per os, OvA 25 μg/ml", "value": 287.2, "unit": "pg/mL"}, {"measurement": "Production of IL-2 by splenocytes", "setting": "[1]; OvA/FA, 10.0 μg/kg per os, OvA 100 μg/ml", "value": 478.2, "unit": "pg/mL"}, {"measurement": "CD20+ %", "setting": "[2]", "value": "15.93 ± 1.20", "unit": "%"}, {"measurement": "CH50, conv. units", "setting": "[2]", "value": "64.53 ± 4.11", "unit": "conv. units"}, {"measurement": "CIC, conv. units", "setting": "[2]", "value": "53.93 ± 8.03", "unit": "conv. units"}, {"measurement": "IgA", "setting": "[2]", "value": "1.821 ± 0.087", "unit": "g/L"}, {"measurement": "IgG", "setting": "[2]", "value": "8.931 ± 0.481", "unit": "g/L"}, {"measurement": "IgM", "setting": "[2]", "value": "1.179 ± 0.089", "unit": "g/L"}]}]}
